According to patent publication US9289003B2, “Use of compounds involved in biosynthesis of nucleic acids as cryoprotective agents” (CHR. HANSEN A/S, priority 2003, dated 2016):
Entries after “also recorded” stand apart in the source; their conditions may differ.

Legend:
[1] = test system: liquid lactic acid-bacterial starter culture concentrates; settings: 3% Na-formate; cited from earlier work
[2] = test system: F-DVS™ CH-N 19 (frozen LD-culture); assay: Acidifying activity assay of frozen concentrated F-DVS CH-N 19 culture; assay type: cell-based; settings: Example 15; 1 day and 6 days at −50° C; 0,005% w/v inoculum, 6 hrs at 30° C; Na-formate 3% w/w
Method: The additives and concentrates were mixed for 30 minutes and subsequently 150 g of the two portions was frozen in liquid nitrogen. […] Culture activity in milk (heat sterilized LAB-milk) was measured.
The concentration of the various additives is given in the figures as % w/w per gram concentrated biomass.
Culture activity in milk (LAB-milk) was measured as acidification activity after 1 day (FIG. 13) and 6 days (FIG. 14) of storage at −50° C. The activity assay is based on a 0,005% w/v inoculum and 6 hrs incubation at 30° C.

[3] = test system: freeze-dried LD-culture of Fl-Da N; assay: Acidifying activity assay of freeze-dried Fl-Da N culture (FD-DVS); assay type: cell-based; settings: 3% w/w additive, 0.005% inoculum
Method: Frozen culture was inoculated on a 0.01% (w/w) level in 200 ml UHT-sterilized reconstituted skimmed milk (RSM) containing 9.5% (w/w) solid matter and heated at 99° C. for 30 minutes (LAB-milk). The RSM was incubated at 30° C. for 6 h to permit acidification of the substrate material. The acidification activity was measured as described in Example 6: Analytical Procedure QAm-052, “acidification activity—UHT”, Chr. Hansen A/S (Denmark).
(§1) The additive was added to the concentrate as a 30% sterile solution.
To simulate the situation encountered in the industrial situation during a freezing process, the additives and concentrates were mixed and stored for 5 hours at 8° C. and subsequently frozen in liquid nitrogen and further stored at −50° C. for one day before freeze-drying. After freeze-drying was completed the culture was stored at −50° C. until analysis. […] Culture activity in milk (LAB-rnilk) was measured after 7 days of storage at −50° C.
This example describes the stability of freeze-dried LDultures (FD-DVS) of Fl-Da-N formulated with and without a number of different additives, which may act as cryprotective agents. In the experiments the.concentration of the various additives were 3% w/w per gram concentrated biomass unless other vice indicated in the figures.
After fermentation, biomass was harvested and concentrated via centrifugation from fermentation broth of Fl-Da N as described in the Materials and Method section. The cell concentrate was divided into a number of portions and was added to each of the portions. To simulate the situation encountered in the industrial situation during a freezing process, the additives and concentrates were mixed and stored for 5 hours at 8° C. and subsequently frozen in liquid nitrogen and further stored at −50° C. for one day before freezedrying. After freeze-drying was completed the culture was stored at −50° C. until analysis. […] Culture activity in milk (LAB-milk) was measured by the acidifying activity assay after 1 day and after 2 months of storage at −50° C.

bacterial cultures = assay: Cryoprotection of bacterial cultures, summary statements of the description; assay type: cell-based; settings: summary of the experiments (examples 12 and 15 cited for adenosine)
[4] = test system: F-DVS™ Fl-Da N (frozen LD-culture); assay: Acidifying activity assay of frozen concentrated F-DVS Fl-Da N culture stored at −50° C; assay type: cell-based; settings: 3% w/w additive; for reduction in stability of culture without additive relative to culture stabilized by additive / loss of acidification activity of culture without additive: 13 days at −50° C; for reduction in stability of culture without additive relative to culture stabilized by additive: 0.01% inoculum, pH after 6 hrs at 30° C; for loss of acidification activity of culture without additive: corresponds to the pH difference; for ranking as cryoprotective during prolonged storage: storage extended to 21 or 49 days at −50° C
Method: In this example the stability measured by the acidification activity of a commercially produced LD-culture: F-DVS™ FI-Da N (Chr. Hansen A/S Item. No. 501691) was followed over a period of 6 months. The culture was produced and stored at −50° C. as described in the Materials and Methods section.
In contrast to what is common the first activity-measurement in this example was performed immediately after the culture were frozen as pellets in liquid nitrogen and followed by measurements after 1, 2, 12, 20 and 188 days of storage at −50° C.
as §1
To simulate a situation similar to the industrial situation during the freezing process the additives and concentrates were mixed and stored for 5 hours at 8° C. and subsequently frozen in liquid nitrogen and further stored at −50° C. […] Culture activity in milk (LAB-milk) was measured the same day as the frozen cultures were formulated.
Culture activity in milk (LAB-milk) was measured the same day as the cultures were frozen and the activity was followed periodically up to 13 days.
Experimental details were as described in Example 10, with the exception that the activity was monitored for an extended period of time.

## O=C[O-].[Na+] [Na-formate]
[1]
  effect on storage stability of liquid starter culture concentrates: effective to increase the storage stability of liquid lactic acid-bacterial starter culture concentrates
[2]
  effect on activity/stability of frozen culture: detrimental for frozen cultures; also recorded: detrimental to the activity of frozen cultures; also recorded: decrease the storage stability of frozen lactic acid bacterial starter culture

## Nc1ncnc2c1ncn2[C@@H]1O[C@H](CO)[C@@H](O)[C@H]1O [adenosine, reference compound]
[3]; 2 months of storage at −50° C
  effect on stability of freeze-dried culture: harmful to the culture
[3]; one day of storage at −50° C
  effect on stability of freeze-dried culture: highly efficient to ensure stability of the culture
[2]
  effect on activity/stability of frozen culture: harmful to the activity of the culture
Bacterial cultures
  effectiveness as cryoprotective agent: appears to decrease the stability of bacterial cultures

## Nc1ncnc2c1ncn2[C@@H]1O[C@H](COP(=O)(O)O)[C@@H](O)[C@H]1O [AMP, adenosine-5′-monophosphate]
[2]
  effect on activity/stability of frozen culture: harmful to the activity of the culture
Bacterial cultures
  effectiveness as cryoprotective agent: but not AMP is effective as a cryoprotective agent

## OC[C@H]1O[C@@H](n2cnc3c(O)ncnc32)[C@H](O)[C@@H]1O [Inosine, inosine]
[4]
  reduction in stability of culture without additive relative to culture stabilized by additive: 0.41 pH units
  loss of acidification activity of culture without additive: 60%
  ranking as cryoprotective during prolonged storage: better cryoprotective of F-DVS™ FI-Da N than GMP
[3]; one day of storage at −50° C
  effect on stability of freeze-dried culture: highly efficient to ensure stability of the culture
Bacterial cultures
  effectiveness as cryoprotective agent: very effective as a cryoprotective agent

## O=c1ccn([C@@H]2O[C@H](COP(=O)(O)O)[C@@H](O)[C@H]2O)c(=O)[nH]1 [UMP, uranosine-5′-monophosphate]
[3]; 2 months of storage at −50° C
  effect on stability of freeze-dried culture: preferred

## Nc1nc2c(ncn2[C@@H]2O[C@H](COP(=O)(O)O)[C@@H](O)[C@H]2O)c(=O)[nH]1 [GMP, guanosine-5′-monophosphate]
[4]
  reduction in stability of culture without additive relative to culture stabilized by additive: 0,31 pH units
  loss of acidification activity of culture without additive: 50%
  ranking as cryoprotective during prolonged storage: better that IMP

## Nc1ccn([C@@H]2O[C@H](COP(=O)(O)O)[C@@H](O)[C@H]2O)c(=O)n1 [CMP, cytidine-5′-monophosphate]
[3]; 2 months of storage at −50° C
  effect on stability of freeze-dried culture: preferred
